Source: patent US7384657B2, “Composition of natural herb extract for treating cardiovascular disease and its method of preparation thereof” (priority 2004, dated 2008)
“Also recorded” adds a separate entry of the source.

Columns and labels:
[1] = Tanshinone bile excretion and intrahepatic transformation; type: in vivo, rats
Experimental: The experimental animal is male rats each weighs 350-400 g. Intraperitoneal anesthesia with 10% of 1 g/kg malarin is employed. Insert it into the common bile duct with infantile scalp needle. After it is fixed, collect bile, for 1 hour quantity, to be used as blank contrast. Small amount of dimethyl formamide added to the medicine. And then, 1% carboxymethyl cellulose is diluted to 10 mg/ml. Administer to the duodenum and followed by scheduled fixed quantity of bile collection. The bile stays overnight in the fridge. Abstract twice with chloroform and combine with chloroform liquid. Conduct water bath and dry it by evaporation. Keep it in the desiccators. Before the test, fixed quantity dilution is conducted by using 50 ml chloroform and followed by high pressure liquid's separation and fixation of quantity. The change of Tanshinone in the liver hemogenate: After a larger male […], weighs 160 g, is anesthetized, its liver is taken and weighed. Use 0.15M potassium chloride and 0.24M amide to manufacture hemogenate. Use double-deck gauze for filtrating. Again, with the above-mentioned solution, dilute the filtrate to every 10 ml which equals to the 6 g weight of the liver tissue. Add 4 ml of pH 7.4 phosphoric buffer solution and 2 ml liver hemogenate to the 100 ml conical flask. 1 mg specimen of Tanshinone dissolves in 95% of 0.2 ml ethanol. 0.2 ml of 95% ethanol liquid, which contains no tashinone, is added to the control group. Keep it warm at 37° C. for 2 hours. When the reaction ceases, use 12 ml chloroform to extract twice separately. Merge with the extract, and conduct water bath and dry it by evaporation. Before the test, the specimen is dissolved with 100 ml chloroform. Use the thin layer for separating and quantity fixing [silica-CMC thin layer; developer is benzene-acetone (95:5)]. […] The peak of excretion takes place in about 3 hours after the administration. […] Quantity of Tanshinone IIA in the bile excretion from animal of such group is 5 to 10 times higher than the Tanshinone IIA group. […]

[2] = test system: isolated rats's right atrium; assay: isolated rats's right atrium
From the text: (§1) It is antagonistic to the acceleration of heart rate induced by isopropylnoradrenaline.

[3] = intravenous matrine injection in cat; type: in vivo; conditions: 1 mg/kg i.v.
From the text: The curative effect of matrine upon the premature heartbeat, caused by various reasons, is relatively better. It is partially effective on the supraventricular arrhythmia. In clinical study, matrine's tablet is employed to treat 167 cases of arrhythmia.

[4] = pharmacokinetics of oxymatrine and matrine in mice; conditions: mouse, in vivo
[5] = subcutaneous injection; cited from earlier work
solubility = assay: solubility
Experimental: Matrine is also called matricaria. Its molecular formula is C15H24N2O and its molecular weight is 248.36. It has four isomers: α, β, γ, and δ isomers. α-matrine is the one commonly seen. It is a needle or rhombohedral crystal, having a melting point 76° C. and [α]D+39.1° (H2O).
Oxymatrine has a molecular formula C15H24N2O2 and a molecular weight 264.36. It is a colorless columnar crystal (Me2CO), melting point 162° C. (hydrate), 207° C. (anhydrate), [α]D+47.7° (C2H5OH). […] It can change to matrine through reaction with SO2.

[6] = test system: isolated guinea pig's right and left atrium; assay: isolated guinea pig's atria
From the text: The effect of alkaloids on heart function is studied. […] Furthermore, it presents dosage dependent relation. The function of its negative frequency, positive inotropic action and negative maximum driving force (MDF) appears to be linear correlation. Matrine is able to inhibit the aconitine to induce the rats's left atrial automatic rhythmicity effect, or, prolong the aconitine to induce the latent period's auto-rhythmicity or slow down its initial frequency. Also, it is able to heighten the ouabin to induce the guinea pig's right atrial arrhythmia and the adrenal gland injection to induce the auto-consistency of guinea pig's left atrium. Moreover, it has the enhancement effect on the positive inotropic action of ouabin.
In fact, all of them are dosage dependence relation. […] It clearly prolongs inducement of the latent period of auto-rhythmicity and slows down the inducement of auto-rhythmicity's initial frequency. It is also able to raise ouabin to induce the isolated guinea pig's right atrial arrhythmia and the adrenal gland inducing the isolated guinea pig's left atrial auto-rhythmicity's consistency.

[7] = intramuscular matrine crystal in dog
Experimental: Intramuscular injection of matrine crystal 200 mg/kg given to the dog. […] Dog is administrated with daily intramuscular injection 0.5 g. […] 1-3 treatment courses are carried out altogether.

[8] = intravenous matrine in rats: arrhythmia and ECG; type: in vivo
From the text: as §1

[9] = puerarin aglycone, left ventricular function index; type: in vivo; conditions: dog
From the text: Study proves puerarin is able to mitigate the angina pectoris, contracted, remarkably and improve the ischemic electrocardiogram. It reduces the myocardial oxygen consumption. Puerarin can slow down the rate of the heart pulsation and enhance the myocardial systolic power. […] Puerarin is able to outstandingly reduce the tension-time index (TTI) and the ascending rate of the left ventricular pressure. The effect of puerarin on ischemic myocardium is reducing the resistance of the coronary artery's lateral branch. Puerarin is able to mitigate clearly the PG angina pectoris and improve the ischemic electrocardiogram. […] It enables the reduction of coronary artery's resistance and the increase of coronary artery's flow volume. Thus, it is advantageous to the improvement of balance of supply and need. And also, it has the obvious effect on resisting the arrhythmia.

Tanshinone
time of peak of bile excretion ([1]; duodenal administration): about 3 hours | time until Tanshinone is found in the bile ([1]; duodenal administration): in about an hour

Matrine
calcium-antagonism effect [2]: no calcium-antagonism effect | right atrial spontaneous frequency [2]: clearly slows down | blood flow capacity of the coronary artery [3]: increases | heart rate [3]: slowdown of cat's heart rate emerges | gastrointestinal absorption [4]: easier to be absorbed by the gastrointestinal tract | LD50 [5]: 297 ± 18 mg/kg | solubility (solubility): soluble in water, benzene, chloroform, ether and carbon sulfide and nearly insoluble in petroleum ether | left atrial maximum driving force (MDF) [6]: reduces the left atrial maximum driving force | right atrial systolic power [6]: increases the right atrial systolic power | aconitine-induced left atria automatic rhythmicity ([6]; 3 μmol/L): significantly inhibits | automatic frequency of right atrium ([6]; dosage dependent): slow down the automatic frequency of guinea pig's right atrium; also recorded: obvious negative frequency effect | abnormal phenomenon ([7]; 200 mg/kg intramuscular, 6 hours of observation): no abnormal phenomenon except slightly being quiet | mental state, activity condition and hemogram ([7]; 0.5 g daily intramuscular, 14 days): no apparent abnormal phenomenon | pathologic examination of the myocardium ([7]; 0.5 g daily, 13-day courses, 1-3 courses): no obvious change | heart rate ([8]; 18.75 mg/kg): heart rate slows down clearly | arrhythmia caused by aconitine, barium chloride and ligation of coronary artery ([8]; i.v.): significantly able to resist the arrhythmia

O=c1c(-c2ccc(O)cc2)coc2cc(O)ccc12 [puerarin aglycone]
lowering of left ventricular function index [9]: 14.3%

C[C@H]1COC2=C1C(=O)C(=O)c1c2ccc2c1CCCC2(C)C [latent Tanshinone]
transformation in the liver ([1]; rat, in vivo): can transform into Tanshinone IIA
